Experimental data taken from PMC2951135 (Journal of medicinal chemistry, 2010).
“Also recorded” adds a separate entry of the source.

Tests used:
[1] = cited from earlier work
[2] = tested on: non iron-overloaded, bile duct-cannulated rats; details: po 300 μmol/kg; cited from earlier work
[3] = clinical trial abandoned by Genzyme; cited from earlier work
[4] = tested on: iron-overloaded C. apella primates; assay: Chelator-induced iron clearance in iron-overloaded primates; format: in vivo, Cebus apella monkeys
[5] = tested on: non iron-overloaded, bile duct-cannulated rats; format: in vivo, Sprague-Dawley rats
rats [6] = assay: Tissue iron decorporation in rats after 10 days of dosing; format: in vivo, Sprague-Dawley rats
rats [7] = assay: Ten-day toxicity trial in rats; format: in vivo, Sprague-Dawley rats
[8] = pH 7.4
[9] = Hydrolysis of ester 7 in rat plasma; format: in vitro ADME; details: 37 °C, solubilized in DMSO
[10] = Hydrolysis of ester 7 in monkey plasma; format: in vitro ADME, Cebus apella monkeys; details: Cebus apella monkey plasma, 37 °C, solubilized in DMSO
[11] = Control incubation of ester 7 with saline in place of plasma; format: in vitro ADME; details: 37 °C, 1 or 2 h
[12] = po 75 μmol/kg by gavage as monosodium salt
[13] = orally once daily 384 μmol/kg/d × 10 d

## C[C@]1(C(=O)O)CSC(c2ncccc2O)=N1 [Compound 1, (S)-4,5-dihydro-2-(3-hydroxy-2-pyridinyl)-4-methyl-4-thiazolecarboxylic acid]
[1]
  nephrotoxicity: severely nephrotoxic

## C[C@]1(C(=O)[O-])CSC(c2ccc(O)cc2O)=N1.[Na+] [Compound 2, (S)-2-(2,4-dihydroxyphenyl)-4,5-dihydro-4-methyl-4-thiazolecarboxylic acid]
[2]
  relative percentage of the iron excreted in the bile (rodents): 100%
  relative percentage of the iron excreted in the urine (rodents): 0%
[3]
  toxicity that led to abandonment of the clinical trial: nephrotoxicity; also recorded: renal toxicity

## COc1ccc(C2=N[C@@](C)(C(=O)[O-])CS2)c(O)c1.[Na+] [Compound 3, (S)-4,5-dihydro-2-(2-hydroxy-4-methoxyphenyl)-4-methyl-4-thiazolecarboxylic acid]
[2]
  relative percentage of the iron excreted in the bile (rodents): 98%
  relative percentage of the iron excreted in the urine (rodents): 2%
[1]
  nephrotoxicity: very nephrotoxic; also recorded: unacceptably nephrotoxic

## COCCOCCOCCOc1ccc(C2=N[C@@](C)(C(=O)O)CS2)c(O)c1 [Compound 4, (S)-4,5-dihydro-2-[2-hydroxy-4-(3,6,9-trioxadecyloxy)phenyl]-4-methyl-4-thiazolecarboxylic acid]
[2]
  relative percentage of the iron excreted in the bile (rodents): 90%
  relative percentage of the iron excreted in the urine (rodents): 10%
[4]; monkey, in vivo
  ICE in primates relative to the longer analogue 5: 2.5
[1]
  nephrotoxicity: virtually absent of any nephrotoxicity

## COCCOCCOCCOCCOc1ccc(C2=N[C@@](C)(C(=O)[O-])CS2)c(O)c1.[Na+] [Compound 5, (S)-4,5-dihydro-2-[2-hydroxy-4-(3,6,9,12-tetraoxatridecyloxy)phenyl]-4-methyl-4-thiazolecarboxylic acid]
[5]; po 300 μmol/kg
  ICE in rodents relative to the parent 2: ~11 times

## COCCOCCOc1ccc(C2=N[C@@](C)(C(=O)O)CS2)c(O)c1 [Compound 6, (S)-4,5-dihydro-2-[2-hydroxy-4-(3,6-dioxaheptyloxy)phenyl]-4-methyl-4-thiazolecarboxylic acid]
[4]; [12]
  Primate Iron-Clearing Efficiency: 28.7 ± 12.4%
  relative percentage of the iron excreted in the urine (primates): 17%
[4]; po 75 μmol/kg in capsules
  Primate Iron-Clearing Efficiency: > 26%
  relative percentage of the iron excreted in the feces (primates): 93%
[4]; primates given the monosodium salt by gavage, rodents capsules
  Performance Ratio (mean ICEprimates/ICErodents): 1.1
Rats [6]; capsules, 384 μmol/kg/d × 10 d
  reduction in pancreatic iron vs untreated controls: not when it was dosed in capsules
Rats [6]; gavage as sodium salt, 384 μmol/kg/d × 10 d
  reduction in pancreatic iron vs untreated controls: significant reduction in pancreatic iron
Rats [7]; [13]
  histopathology: no obvious histopathologies; also recorded: cannot be reliably differentiated histologically from the tissues from rats in Group 2; also recorded: no histological abnormalities noted between the treated and the control groups
[5]; po 300 μmol/kg in capsules, 48 h sample collection period
  Rodent Iron-Clearing Efficiency: > 26%

## CCOC(=O)[C@@]1(C)CSC(c2ccc(OCCOCCOC)cc2O)=N1 [Compound 7, ethyl (S)-4,5-dihydro-2-[2-hydroxy-4-(3,6-dioxaheptyloxy)phenyl]-4-methyl-4-thiazolecarboxylate]
[8]
  times more lipophilic than the parent 2: 11,220 times
Rats [6]; capsules, 192 μmol/kg/d × 10 d
  decrease in cardiac iron vs untreated controls: Neither dose was associated with a reduction in pancreatic or cardiac iron content
  reduction in pancreatic iron vs untreated controls: Neither dose was associated with a reduction in pancreatic or cardiac iron content
Rats [6]; capsules, 384 μmol/kg/d × 10 d
  decrease in cardiac iron vs untreated controls: Neither dose was associated with a reduction in pancreatic or cardiac iron content
  reduction in pancreatic iron vs untreated controls: Neither dose was associated with a reduction in pancreatic or cardiac iron content
[9]
  time for conversion of all of the ester to the active acid 6: 1 to 2 h
Rats [7]; [13]
  histopathology: Mild to moderate vacuolar degeneration of the proximal tubular epithelial cells; also recorded: unacceptable renal toxicity
Rats [7]; orally once daily in capsules 192 μmol/kg/d × 10 d
  histopathology: no drug-related abnormalities
[10]
  time for conversion of all of the ester to the active acid 6: 1 to 2 h
[11]
  stability of the ester in saline: all of the drug remained in the form of the ester
